Assay results: patent publication US5814636A, “Compounds with platelet aggregation inhibitor activity” (Meiji Seika Kabushiki Kaisha, priority 1994, dated 1998)
pIC50: −log10 of the molar value. Counter-ions that a name gives are not always drawn.

The compounds below were run on human PRP (platelet rich plasma) (assay: Inhibition of platelet aggregation (human PRP, ADP-induced)). Conditions: ADP 5 μM final as inducer, compound and PRP preincubated 2 minutes.
Format: cell-based
Text: The structures of compounds obtained in Examples are as follows. The numbers of the compounds correspond to those of the examples. [drawing 11] Pharmacological test: Inhibition of platelet aggregation
The effect of the compound according to the present invention on inhibiting the platelet aggregation was examined with human PRP (platelet rich plasma).
Nine volumes of a blood sample was taken out of the vein of a normal human with a syringe in which one volume of a 3.8% sodium citrate solution was charged. The blood sample was centrifuged at 170×g at room temperature for 10 minutes. The supernatant thus obtained was isolated as PRP. The residual blood sample that PRP had been taken out was centrifuged at 2,700×g for 15 minutes. The supernatant was then taken as platelet poor plasma (PPP).
Platelet aggregation test was conducted with an aggligometer (PAM-8C; manufactured by MEBANICKS Co., Ltd.). Compounds to be tested were dissolved in a 50% DMSO saline, a 50% methanol saline or physiological saline. The compound and PRP were preincubated for 2 minutes. The ADP (CHRONO-PAR REAGENTS 384 ADP, CHRONO-LOG Corp.) was used as an inducer in the form of a dilution with saline so that the final concentration is 5 μM.
Anti-platelet aggregation activity was obtained as an inhibition rate to platelet aggregation effect of ADP in the absence of a compound to be tested as follows: [formula]

Structure (SMILES) | pIC50
O=C(O)COC1CCN(C(=O)CN2CCC(N3CCNCC3)CC2)CC1 [Example 6, [[1-[4-(piperazin-4-yl)piperidin-1-yl]acetyl]piperidin-4-yl]oxyacetic acid trifluoroacetate] | 5.64
CCOC(=O)COc1ccc(C(=O)CN2CCN(C3CCNCC3)CC2=O)cc1 [Example 14, ethyl 4-[[4-(piperidin-4-yl)-2-oxopiperazin-1-yl]acetyl]phenoxyacetate] | 6.60
O=C(O)COc1ccc(C(=O)CN2C(=O)CN(C3CCNCC3)CC2=O)cc1 [Example 8, 4-[[4-(piperidin-4-yl)-2,6-dioxopiperazin-1-yl]acetyl]phenoxyacetic acid hydrochloride] | 7.72
CCCCOC(=O)COc1ccc(C(=O)CN2C(=O)CN(C3CCNCC3)CC2=O)cc1 [Example 7, n-butyl 4-[[4-(piperidin-4-yl)-2,6-dioxopiperazin-1-yl]acetyl]phenoxyacetate hydro chloride] | 6.62
O=C(O)COc1ccc(C(=O)CN2CC(=O)N(C3CCNCC3)CC2=O)cc1 [Example 12, 4-[[4-(piperidin-4-yl)-2,5-dioxopiperazin-1-yl]acetyl]phenoxyacetic acid hydrochloride] | 5.92
CCOC(=O)COc1ccc(C(=O)CN2CCN(C3CCN(Cc4oc(=O)oc4C)CC3)CC2=O)cc1 [Example 15, ethyl 4-[[4-[1-(5-methyl-2-oxodioxol-4-yl)methylpiperidin-4-yl]-2-oxopiperazin-1-yl]acetyl]phenoxyacetate] | 6.52
O=C(O)COc1ccc(C(=O)CN2CCN(C3CCNCC3)CC2=O)cc1OCC(=O)O [Example 1, [[4-[[4-(piperidin-4-yl)-2-oxopiperazin-1-yl]acetyl]-o-phenylene]dioxy]diacetic acid trifluoroacetate] | 7.26
CCOC(=O)COc1ccc(C(=O)CN2CCN(C3CCNCC3)CC2=O)cc1OCC(=O)OCC [Example 4] | 6.25
CCCCOC(=O)COc1ccc(C(=O)CN2CCN(C3CCNCC3)CC2=O)cc1 [Example 13, n-butyl 4-[[4-(piperidin-4-yl)-2-oxopiperazin-1-yl]acetyl]phenoxyacetate dihydrochloride] | 7.31
O=C(O)COc1ccc(C(=O)CN2CCN(C3CCNCC3)CC2=O)cc1 [Example 5] | 7.49
O=C(O)COc1ccc(C(=O)CN2CCN(C3CCNCC3)CC2)cc1OCC(=O)O [Example 3, [[4-[4-(piperidin-4-yl)piperazin-1-yl]acetyl]-o-phenylene]dioxy]diacetic acid trifluoroacetate] | 6.82
CCCCOC(=O)COc1ccc(C(=O)CN2CC(=O)N(C3CCNCC3)CC2=O)cc1 [Example 11] | 5.96
O=C(O)CCc1ccc(C(=O)CN2CCN(C3CCNCC3)CC2=O)cc1 [Example 16, 3-[4-[[4-(piperidin-4-yl)-2-oxopiperazin-1-yl]acetyl]phenyl]propionic acid trifluoroacetate] | 6.38
CCCCOC(=O)COc1ccc(C(=O)CN2CCN(C3CCNCC3)C(=O)C2=O)cc1 [Example 9, n-butyl 4-[[4-(piperidin-4-yl)-2,3-dioxopiperazin-1-yl]acetyl]phenoxyacetate hydro chloride] | 5.92
O=C(O)COC1CCN(C(=O)CN2CCN(C3CCNCC3)CC2=O)CC1 [Example 2, [[1-[4-(piperidin-4-yl)-2-oxopiperazin-1-yl]acetyl]piperidin-4-yl]oxyaceticacid trifluoroacetate] | 7.10
O=C(O)COc1ccc(C(=O)CN2CCN(C3CCNCC3)C(=O)C2=O)cc1 [Example 10, 4-[[4-(piperidin-4-yl)-2,3-dioxopiperazin-1-yl]acetyl]phenoxyacetic acid.hydrochloride] | 6.33
